{"source": "paper PMC6218659", "about": "“Structures of DPAGT1 Explain Glycosylation Disease Mechanisms and Advance TB Antibiotic Design” (Cell, 2018)", "key": {"HepG2 cells": {"tested_on": "HepG2 cells", "experiment": "Cell proliferation assay (MTS)", "type": "cell-based, human", "conditions": "for LD50 values, HepG2: MTS cell proliferation assay, 24 hrs, highest concentration 400 µg mL-1; for Minimal Lethal Dose, HepG2: serial 2-fold dilutions (Table S6)"}, "HEK293 cells": {"tested_on": "HEK293 cells", "experiment": "Cell proliferation assay (MTS)", "type": "cell-based, human", "conditions": "for LD50 values, HEK293: MTS cell proliferation assay, 24 hrs, highest concentration 400 µg mL-1; for Minimal Lethal Dose, HEK 293: serial 2-fold dilutions (Table S6)"}, "Raji cells": {"tested_on": "Raji cells", "experiment": "Cell proliferation assay (MTS)", "type": "cell-based, human", "conditions": "24 hrs"}, "B. subtilis EC1524": {"tested_on": "B. subtilis EC1524", "experiment": "Micro-broth dilution and drop plate antimicrobial susceptibility test", "type": "cell-based, Bacillus subtilis", "conditions": "for Relative Therapeutic Index (RTI), B. subtilis EC1524: minimal lethal dose / MIC, 800 μg mL-1 used for >400"}, "Mtb H37Rv ATCC27294 [1]": {"tested_on": "Mtb H37Rv ATCC27294", "experiment": "Minimum inhibitory concentrations testing against Mtb", "type": "cell-based, Mycobacterium tuberculosis", "conditions": "for MIC: Mycobacterium tuberculosis, 168 h"}, "B. cereus ATCC11778": {"tested_on": "B. cereus ATCC11778", "experiment": "Micro-broth dilution and drop plate antimicrobial susceptibility test", "type": "cell-based, Bacillus cereus", "conditions": "for Relative Therapeutic Index (RTI), B. cereus NRRL 11778: minimal lethal dose / MIC, 800 μg mL-1 used for >400"}, "DPAGT1": {"target": "T1, DPAGT1 (Homo sapiens, UniProt Q9H3H5)", "T1 construct": "H. sapiens DPAGT1 (1-408, N-terminal 6 x HIS tag, TEV cleavage site); 6xHis purification tag with TEV site (N, cleaved yes); made in house; host or cells: Spodoptera frugiperda Sf9 insect cells (baculovirus)", "T1 sequence (Q9H3H5 1-408)": "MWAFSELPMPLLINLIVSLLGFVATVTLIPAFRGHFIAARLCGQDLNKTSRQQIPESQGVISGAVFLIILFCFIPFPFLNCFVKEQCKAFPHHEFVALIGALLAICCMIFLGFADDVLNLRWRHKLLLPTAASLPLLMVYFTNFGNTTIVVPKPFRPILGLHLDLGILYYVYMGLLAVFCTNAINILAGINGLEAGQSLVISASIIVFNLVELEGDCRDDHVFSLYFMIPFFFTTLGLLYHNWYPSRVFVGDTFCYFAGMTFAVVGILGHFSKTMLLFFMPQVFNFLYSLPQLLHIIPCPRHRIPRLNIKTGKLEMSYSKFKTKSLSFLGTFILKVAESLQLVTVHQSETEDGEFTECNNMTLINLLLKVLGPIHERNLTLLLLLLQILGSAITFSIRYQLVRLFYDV", "experiment": "Radiolabeled substrate enzyme activity assay", "type": "biochemical, H. sapiens", "conditions": "purified DPAGT1 enzyme, Figure 6F", "method_in_brief": "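Purified DPAGT1 (WT or mutant, 2 μM stock) in GFB buffer with extra 5 mM MgCl2, 1% OGNG/CHS/cardiolipin and dolichyl monophosphate, reacted with UDP-N-acetyl-[1-14C]-glucosamine; quenched with methanol. Product separated by silica TLC (chloroform/methanol/water 65:25:4), phosphor-imaged; product fraction of total signal times substrate concentration gives product formed.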"}, "Mtb-infected mice": {"tested_on": "Mtb-infected mice", "experiment": "Mouse infection, antitubercular activity"}, "Mtb-GFP": {"tested_on": "Mtb-GFP", "type": "cell-based, Mycobacterium tuberculosis"}, "[2]": {"tested_on": "Mtb-infected J774A.1 macrophages", "experiment": "Efficacy against Mtb growing in infected macrophages", "conditions": "J774A.1 macrophages treated 3 or 7 days"}, "[3]": {"experiment": "Human plasma protein binding assay", "type": "in vitro ADME", "conditions": "read-out: human plasma protein binding, bound (converted)"}, "P. aeruginosa ATCC27853": {"tested_on": "P. aeruginosa ATCC27853", "experiment": "Micro-broth dilution and drop plate antimicrobial susceptibility test", "type": "cell-based", "conditions": "Pseudomonas aeruginosa"}, "S. aureus ATCC29219": {"tested_on": "S. aureus ATCC29219", "experiment": "Micro-broth dilution and drop plate antimicrobial susceptibility test", "type": "cell-based", "conditions": "Staphylococcus aureus"}, "E. coli ATCC25922": {"tested_on": "E. coli ATCC25922", "experiment": "Micro-broth dilution and drop plate antimicrobial susceptibility test", "type": "cell-based", "conditions": "Escherichia coli"}, "Mtb H37Rv ATCC27294 [4]": {"tested_on": "Mtb H37Rv ATCC27294", "experiment": "Macromolecular incorporation assay (radiolabeled glucosamine)", "conditions": "within 48 h, 10x MIC"}, "[5]": {"conditions": "Bacillus subtilis, EC1524, read-out: Minimal Inhibitory Concentration, B. subtilis EC1524"}, "[6]": {"conditions": "Bacillus cereus, ATCC 11778 / NRRL11778, read-out: Minimal Inhibitory Concentration, B. cereus NRRL 11778"}, "[7]": {"conditions": "two weeks, 10 mg.kg^-1 ip, vs vehicle control"}}, "note": "Counter-ions that a name gives are not always drawn. Like-named read-outs stand apart in the source and are kept apart here.", "data": [{"compound": "N[C@H]1[C@H](O[C@H]2O[C@H](CO)[C@@H](O)[C@H](O)[C@H]2N)O[C@H](C[C@@H](O)[C@H]2O[C@@H](n3ccc(=O)[nH]c3=O)[C@H](O)[C@@H]2O)[C@H](O)[C@@H]1O", "note": "[TUN, α-D-glucosamine-(1”-11')-tunicamyl uracil dihydrochloride]", "values": [{"measurement": "LD50 values, HepG2", "setting": "HepG2 cells", "result": "N/A (N/A = not available. No or low cytotoxicity observed at highest, saturating concentration tested (400 µg mL-1))"}, {"measurement": "Minimal Lethal Dose, HepG2", "setting": "HepG2 cells", "result": "> 400", "unit": "µg/mL"}, {"measurement": "LD50 values, HEK293", "setting": "HEK293 cells", "result": "N/A (N/A = not available. No or low cytotoxicity observed at highest, saturating concentration tested (400 µg mL-1))"}, {"measurement": "Minimal Lethal Dose, HEK 293", "setting": "HEK293 cells", "result": "> 400", "unit": "µg/mL"}, {"measurement": "LD50 values, Raji", "setting": "Raji cells", "result": 698.3, "unit": "µg/mL"}, {"measurement": "MIC", "setting": "B. subtilis EC1524; [5]", "result": 100, "unit": "µg/mL"}, {"measurement": "Relative Therapeutic Index (RTI), B. subtilis EC1524", "setting": "B. subtilis EC1524", "result": 8}, {"measurement": "MIC", "setting": "Mtb H37Rv ATCC27294 [1]; 1-week in 7H9/ADC/Tw (Table S6), read-out: Minimal Inhibitory Concentration, Mtb H37RV a", "result": "> 60", "unit": "µg/mL"}, {"measurement": "MIC", "setting": "Mtb H37Rv ATCC27294 [1]; 1-week in GAST/Fe (Table S6), read-out: Minimal Inhibitory Concentration, Mtb H37RV b", "result": "> 60", "unit": "µg/mL"}, {"measurement": "MIC", "setting": "Mtb H37Rv ATCC27294 [1]; Mtb H37Rv, minimal growth medium, read-out: 1-week MIC in GAST/Fe", "result": "> 60", "unit": "µg/mL"}, {"measurement": "MIC", "setting": "Mtb H37Rv ATCC27294 [1]; Mtb H37Rv, rich 7H9-based growth medium, read-out: 1-week MIC in 7H9/ADC/Tw", "result": "> 60", "unit": "µg/mL"}, {"measurement": "MIC", "setting": "B. cereus ATCC11778; [6]", "result": 100, "unit": "µg/mL"}, {"measurement": "Relative Therapeutic Index (RTI), B. cereus NRRL 11778", "setting": "B. cereus ATCC11778", "result": 8}]}, {"compound": "CCCCCCCC(=O)N[C@H]1[C@H](O[C@H]2O[C@H](CO)[C@@H](O)[C@H](O)[C@H]2NC(=O)CCCCCCC)O[C@H](C[C@@H](O)[C@H]2O[C@@H](n3ccc(=O)[nH]c3=O)[C@H](O)[C@@H]2O)[C@H](O)[C@@H]1O", "note": "[TUN-8,8, Di-N-octanoyl-tunicamycin]", "values": [{"measurement": "LD50 values, HepG2", "setting": "HepG2 cells", "result": "N/A (N/A = not available. No or low cytotoxicity observed at highest, saturating concentration tested (400 µg mL-1))"}, {"measurement": "Minimal Lethal Dose, HepG2", "setting": "HepG2 cells", "result": "> 400", "unit": "µg/mL"}, {"measurement": "LD50 values, HEK293", "setting": "HEK293 cells", "result": "N/A (N/A = not available. No or low cytotoxicity observed at highest, saturating concentration tested (400 µg mL-1))"}, {"measurement": "Minimal Lethal Dose, HEK 293", "setting": "HEK293 cells", "result": "> 400", "unit": "µg/mL"}, {"measurement": "LD50 values, Raji", "setting": "Raji cells", "result": "211.05 ± 125.94", "unit": "µg/mL"}, {"measurement": "effect on DPAGT1 catalytic activity", "setting": "DPAGT1", "result": "negligible effect"}, {"measurement": "toxicity in infected mice", "setting": "Mtb-infected mice; precluded testing beyond 2 weeks", "result": "clinical signs of toxicity"}, {"measurement": "reduction in bacterial burdens in lungs", "setting": "Mtb-infected mice; [7]", "result": "~10", "unit": "fold"}, {"measurement": "reduction in bacterial burdens in spleens", "setting": "Mtb-infected mice; [7]", "result": "~5", "unit": "fold"}, {"measurement": "extracellular release of GFP (lysis)", "setting": "Mtb-GFP", "result": "lytic effects"}, {"measurement": "reduction of intracellular bacterial burdens", "setting": "[2]; 1 × MIC", "result": 1, "unit": "logs"}, {"measurement": "reduction of intracellular bacterial burdens", "setting": "[2]; 10 × MIC", "result": 2, "unit": "logs"}, {"measurement": "IC50", "setting": "B. subtilis EC1524; Bacillus subtilis, EC1524", "result": 0.2, "unit": "µg/mL"}, {"measurement": "MBC", "setting": "B. subtilis EC1524; Bacillus subtilis, EC1524", "result": "> 0.78", "unit": "µg/mL"}, {"measurement": "MIC", "setting": "B. subtilis EC1524; Bacillus subtilis, EC1524", "result": "0.65 ± 0.22", "unit": "µg/mL"}, {"measurement": "MIC", "setting": "B. subtilis EC1524; [5]", "result": 0.78, "unit": "µg/mL"}, {"measurement": "Relative Therapeutic Index (RTI), B. subtilis EC1524", "setting": "B. subtilis EC1524", "result": 1026}, {"measurement": "fraction unbound", "setting": "[3]", "result": 0.018}, {"measurement": "IC50", "setting": "P. aeruginosa ATCC27853", "result": 46.6, "unit": "µg/mL"}, {"measurement": "MBC", "setting": "P. aeruginosa ATCC27853", "result": "> 400", "unit": "µg/mL"}, {"measurement": "MIC", "setting": "P. aeruginosa ATCC27853", "result": "83 ± 29", "unit": "µg/mL"}, {"measurement": "IC50", "setting": "S. aureus ATCC29219", "result": 58.4, "unit": "µg/mL"}, {"measurement": "MBC", "setting": "S. aureus ATCC29219", "result": 400, "unit": "µg/mL"}, {"measurement": "MIC", "setting": "S. aureus ATCC29219", "result": "170 ± 60", "unit": "µg/mL"}, {"measurement": "IC50", "setting": "E. coli ATCC25922", "result": 123, "unit": "µg/mL"}, {"measurement": "MBC", "setting": "E. coli ATCC25922", "result": 400, "unit": "µg/mL"}, {"measurement": "MIC", "setting": "E. coli ATCC25922", "result": "330 ± 120", "unit": "µg/mL"}, {"measurement": "Relative Therapeutic Index (RTI), Mtb H37RV a", "setting": "Mtb H37Rv ATCC27294 [1]", "result": 1140}, {"measurement": "MIC", "setting": "Mtb H37Rv ATCC27294 [1]; read-out: 1-week MIC in 7H9/ADC/Tw", "result": "0.7 ± 3.3", "unit": "µg/mL"}, {"measurement": "MIC", "setting": "Mtb H37Rv ATCC27294 [1]; read-out: 1-week MIC in GAST/Fe", "result": "0.14 ± 0.1", "unit": "µg/mL"}, {"measurement": "MIC", "setting": "Mtb H37Rv ATCC27294 [1]; read-out: Minimal Inhibitory Concentration, Mtb H37RV a", "result": 0.7, "unit": "µg/mL"}, {"measurement": "MIC", "setting": "Mtb H37Rv ATCC27294 [1]; read-out: Minimal Inhibitory Concentration, Mtb H37RV b", "result": 0.14, "unit": "µg/mL"}, {"measurement": "IC50", "setting": "B. cereus ATCC11778; Bacillus cereus, ATCC11778", "result": 0.78, "unit": "µg/mL"}, {"measurement": "MBC", "setting": "B. cereus ATCC11778; Bacillus cereus, ATCC11778", "result": "> 50", "unit": "µg/mL"}, {"measurement": "MIC", "setting": "B. cereus ATCC11778; Bacillus cereus, ATCC11778", "result": "5.2 ± 1.8", "unit": "µg/mL"}, {"measurement": "MIC", "setting": "B. cereus ATCC11778; [6]", "result": 6.25, "unit": "µg/mL"}, {"measurement": "Relative Therapeutic Index (RTI), B. cereus NRRL 11778", "setting": "B. cereus ATCC11778", "result": 128}, {"measurement": "glucosamine incorporation", "setting": "Mtb H37Rv ATCC27294 [4]", "result": "reduced"}]}]}
